In general, IC90 refers to the concentration needed for an effect of 90%.

Where a name gives a salt, the structure may show the parent alone.

The subject of the first test is Acinetobacter baumannii ATCC17961. Briefly: Antimicrobial susceptibility testing: 90% growth inhibitory concentration (IC90) determination, Iso-Sensitest broth. Conditions: Acinetobacter baumannii, ATCC17961, 90% growth inhibitory concentration, Acinetobacter baumannii ATCC17961, Iso-Sensitest broth; read-out: ATCC 17961 IC90. The test is classed as cell-based. The procedure:
The in vitro antimicrobial activity of the compounds was determined according to the following procedure:
The assay used a 10-points Iso-Sensitest broth medium to measure quantitatively the in vitro activity of the compounds against Acinetobacter baumannii ATCC17978 or ATCC17961.
Stock compounds in DMSO were serially twofold diluted (e.g. range from 10 to 0.02 μM final concentration) in 384 wells microtiter plates and inoculated with 49 μl the bacterial suspension in Iso-Sensitest medium to have a final cell concentration of ˜5×10^(5) CFU/ml in a final volume/well of 50 ul/well. Microtiter plates were incubated at 35±2° C.
Bacterial cell growth was determined with the measurement of optical density at k=600 nm each 20 minutes over a time course of 16 h. Growth inhibition was calculated during the logarithmic growth of the bacterial cells with determination of the concentration inhibiting 50% (IC50) and 90% (IC90) of the growth.
Table 1 provides the 90% growth inhibitory concentrations (IC90) in micromoles per liter of the compounds of present invention obtained against the strain Acinetobacter baumannii ATCC17978 or ATCC17961.
As for `COc1ccc(-c2cnc(C(=O)Nc3ccc(C(=O)N4CCC(N)CC4)c(Cl)c3)n2C)c(F)c1F` [Example 13, N-[4-(4-Aminopiperidine-1-carbonyl)-3-chloro-phenyl]-5-(2,3-difluoro-4-methoxy-phenyl)-1-methyl-imidazole-2-carboxamide formate], the IC90 worked out at 110 nM.
On the same count and under the same terms, for `Cn1c(-c2ccc(OCC#N)c(F)c2F)cnc1C(=O)Nc1ccc(C(=O)N2CCNCC2)c(Cl)c1` [Example 14, N-[3-chloro-4-(piperazine-1-carbonyl)phenyl]-5-[4-(cyanomethoxy)-2,3-difluoro-phenyl]-1-methyl-imidazole-2-carboxamide] the value was 130 nM; for `COc1ccc(-c2cnc(C(=O)Nc3ccc(C(=O)N4CC(OCCN)C4)c(Cl)c3)n2C)c(F)c1F` [Example 18, N-[4-[3-(2-aminoethoxy)azetidine-1-carbonyl]-3-chloro-phenyl]-5-(2,3-difluoro-4-methoxy-phenyl)-1-methyl-imidazole-2-carboxamide formate], 70 nM.
The same measure, in the same setting: for `Cn1c(-c2ccc(OCC#N)c(F)c2F)cnc1C(=O)Nc1ccc(C(=O)N2CCN(CCN)CC2)c(Cl)c1` [Example 19, N-[4-[4-(2-aminoethyl)piperazine-1-carbonyl]-3-chloro-phenyl]-5-[4-(cyanomethoxy)-2,3-difluoro-phenyl]-1-methyl-imidazole-2-carboxamide trifluoroacetate] the value was 60 nM; for `COc1ccc(-c2cnc(C(=O)Nc3ccc(C(=O)N4CCC(S(=O)(=O)N5CCNCC5)CC4)c(Cl)c3)n2C)c(F)c1F` [Example 21, N-(3-chloro-4-(4-(piperazin-1-ylsulfonyl)piperidine-1-carbonyl)phenyl)-5-(2,3-difluoro-4-methoxyphenyl)-1-methyl-1H-imidazole-2-carboxamide formate], 100 nM.
For `COc1ccc(-c2cnc(C(=O)Nc3ccc(C(=O)N4CCC(OCCN)CC4)c(Cl)c3)n2C)c(F)c1F` [Example 22, N-[4-[4-(2-aminoethoxy)piperidine-1-carbonyl]-3-chloro-phenyl]-5-(2,3-difluoro-4-methoxy-phenyl)-1-methyl-imidazole-2-carboxamide formate], the IC90 was 40 nM.
Same read-out and setting: the value for `COc1ccc(-c2cnc(C(=O)Nc3ccc(C(=O)N4CCC(OCC5CNC5)CC4)c(Cl)c3)n2C)c(F)c1F` [Example 23, N-[4-[4-(azetidin-3-ylmethoxy)piperidine-1-carbonyl]-3-chloro-phenyl]-5-(2,3-difluoro-4-methoxy-phenyl)-1-methyl-imidazole-2-carboxamide formate] was 60 nM.
The same measure, in the same setting: the value for `Cn1c(-c2ccc(OCF)c(F)c2F)cnc1C(=O)Nc1ccc(C(=O)N2CCN(C(=O)C3CCN(CC(N)=O)CC3)CC2)c(Cl)c1` [Example 24, N-(4-(4-(1-(2-amino-2-oxoethyl)piperidine-4-carbonyl)piperazine-1-carbonyl)-3-chlorophenyl)-5-(2,3-difluoro-4-(fluoromethoxy)phenyl)-1-methyl-1H-imidazole-2-carboxamide] was 70 nM.
For the molecule `Cn1c(-c2ccc(OCF)cc2F)cnc1C(=O)Nc1ccc(C(=O)N2CCN(C(=O)N3CC[C@@H](N)C3)CC2)c(Cl)c1` [Example 26, (R)-N-(4-(4-(3-aminopyrrolidine-1-carbonyl)piperazine-1-carbonyl)-3-chlorophenyl)-5-(2-fluoro-4-(fluoromethoxy)phenyl)-1-methyl-1H-imidazole-2-carboxamide formate], the IC90 turned out to be 30 nM.
As for `COc1ccc(-c2cnc(C(=O)Nc3ccc(C(=O)N4CCC(C(=O)N5CCN[C@H](CO)C5)CC4)c(Cl)c3)n2C)c(F)c1F` [Example 29, N-[3-chloro-4-[4-[(3S)-3-(hydroxymethyl)piperazine-1-carbonyl]piperidine-1-carbonyl]phenyl]-5-(2,3-difluoro-4-methoxy-phenyl)-1-methyl-imidazole-2-carboxamide], the IC90 came to 190 nM.
Take `COc1ccc(-c2cnc(C(=O)Nc3ccc(C(=O)N4CCC(C(=O)N5CCN[C@@H](CO)C5)CC4)c(Cl)c3)n2C)c(F)c1F` [Example 30, N-[3-chloro-4-[4-[(3R)-3-(hydroxymethyl)piperazine-1-carbonyl]piperidine-1-carbonyl]phenyl]-5-(2,3-difluoro-4-methoxy-phenyl)-1-methyl-imidazole-2-carboxamide]: the IC90 was found to be 170 nM.
On the same count and under the same terms, the value for `COc1ccc(-c2cnc(C(=O)Nc3ccc(C(=O)N4CCC(C(=O)NCC5CNC5)CC4)c(Cl)c3)n2C)c(F)c1F` [Example 31, N-(azetidin-3-ylmethyl)-1-[2-chloro-4-[[5-(2,3-difluoro-4-methoxy-phenyl)-1-methyl-imidazole-2-carbonyl]amino]benzoyl] piperidine-4-carboxamide formate] was 70 nM; that for `COc1ccc(-c2cnc(C(=O)Nc3ccc(C(=O)N4CCC(C(=O)NC[C@H](C)N)CC4)c(Cl)c3)n2C)c(F)c1F` [Example 32, N-[(2S)-2-aminopropyl]-1-[2-chloro-4-[[5-(2,3-difluoro-4-methoxy-phenyl)-1-methyl-imidazole-2-carbonyl]amino]benzoyl] piperidine-4-carboxamide] was 80 nM.
Still for that read-out and setting: for `COc1ccc(-c2cnc(C(=O)Nc3ccc(C(=O)N4CCC(C(=O)N5CC(N)C5)CC4)c(Cl)c3)n2C)c(F)c1F` [Example 33, N-[4-[4-(3-aminoazetidine-1-carbonyl)piperidine-1-carbonyl]-3-chloro-phenyl]-5-(2,3-difluoro-4-methoxy-phenyl)-1-methyl-imidazole-2-carboxamide trifluoroacetate] the value was 90 nM; for `COc1ccc(-c2cnc(C(=O)Nc3ccc(C(=O)N4CCC(C(=O)N5CC(CN)C5)CC4)c(Cl)c3)n2C)c(F)c1F` [Example 34, N-[4-[4-[3-(aminomethyl)azetidine-1-carbonyl]piperidine-1-carbonyl]-3-chloro-phenyl]-5-(2,3-difluoro-4-methoxy-phenyl)-1-methyl-imidazole-2-carboxamidetrifluoroacetate], 70 nM.
With `COc1ccc(-c2cnc(C(=O)Nc3ccc(C(=O)N4CCC(C(=O)NCC5CCNCC5)CC4)c(Cl)c3)n2C)c(F)c1F` [Example 35, 1-[2-chloro-4-[[5-(2,3-difluoro-4-methoxy-phenyl)-1-methyl-imidazole-2-carbonyl]amino]benzoyl]-N-(4-piperidylmethyl)piperidine-4-carboxamide formate], the IC90 was determined as 60 nM.
In the case of `COc1ccc(-c2cnc(C(=O)Nc3ccc(C(=O)N4CCC(C(=O)NCc5ccncc5)CC4)c(Cl)c3)n2C)c(F)c1F` [Example 36, 1-[2-chloro-4-[[5-(2,3-difluoro-4-methoxy-phenyl)-1-methyl-imidazole-2-carbonyl]amino]benzoyl]-N-(4-pyridylmethyl)piperidine-4-carboxamide], the IC90 was found to be 130 nM.
With `COc1ccc(-c2cnc(C(=O)Nc3ccc(C(=O)N4CCC(C(=O)NC5CCNCC5)CC4)c(Cl)c3)n2C)c(F)c1F` [Example 38, 1-[2-chloro-4-[[5-(2,3-difluoro-4-methoxy-phenyl)-1-methyl-imidazole-2-carbonyl]amino]benzoyl]-N-(4-piperidyl)piperidine-4-carboxamide formate], the IC90 was 60 nM.

Staying with this test, now noted: Acinetobacter baumannii, ATCC17961, read-out: ATCC 17961 IC90.
`Cn1c(-c2ccc(OCC#N)c(F)c2F)cnc1C(=O)Nc1ccc(C(=O)N2CCN(C(=O)N[C@@H]3CNC[C@H]3O)CC2)c(Cl)c1` [Example 7]: the IC90 turned out to be 70 nM.
Still for that read-out and setting: the value for `COc1ccc(-c2cnc(C(=O)Nc3ccc(C(=O)N4CCC(NC(=O)CC5CCNC5)CC4)c(Cl)c3)n2C)c(F)c1F` (stereo not drawn) [Example 11, N-[3-Chloro-4-[4-[(2-pyrrolidin-3-ylacetyl)amino]piperidine-1-carbonyl]phenyl]-5-(2,3-difluoro-4-methoxy-phenyl)-1-methyl-imidazole-2-carboxamide formate] was 70 nM; that for `COc1ccc(-c2cnc(C(=O)Nc3ccc(C(=O)N4CCC(CCN)CC4)c(Cl)c3)n2C)c(F)c1F` [Example 17, N-[4-[4-(2-Aminoethyl)piperidine-1-carbonyl]-3-chloro-phenyl]-5-(2,3-difluoro-4-methoxy-phenyl)-1-methyl-imidazole-2-carboxamide formate] was 30 nM.
Consider `Cn1c(-c2ccc(OCF)cc2F)cnc1C(=O)Nc1ccc(C(=O)N2CCN(C(=O)C3CCNCC3)CC2)c(Cl)c1` [Example 25, N-(3-chloro-4-(4-(piperidine-4-carbonyl)piperazine-l-carbonyl)phenyl)-5-(2-fluoro-4-(fluoromethoxy)phenyl)-1-methyl-1H-imidazole-2-carboxamide formate], for which the IC90 stood at 60 nM.
The same measure, in the same setting: for `COc1ccc(-c2cnc(C(=O)Nc3ccc(C(=O)N4CCC(C(=O)N[C@@H](C)CN)CC4)c(Cl)c3)n2C)c(F)c1F` [Example 28, N-[(1S)-2-Amino-1-methyl-ethyl]-1-[2-chloro-4-[[5-(2,3-difluoro-4-methoxy-phenyl)-1-methyl-imidazole-2-carbonyl]amino]benzoyl]piperidine-4-carboxamide trifluoroacetate] the value was 170 nM; for `COc1ccc(-c2cnc(C(=O)Nc3ccc(C(=O)N4CCC(C(=O)N5C[C@H](N)[C@@H](F)C5)CC4)c(Cl)c3)n2C)c(F)c1F` [Example 37, N-[4-[4-[(3S,4S)-3-amino-4-fluoro-pyrrolidine-1-carbonyl]piperidine-1-carbonyl]-3-chloro-phenyl]-5-(2,3-difluoro-4-methoxy-phenyl)-1-methyl-imidazole-2-carboxamide trifluoroacetate], 170 nM.

The values are drawn from US20220396565A1 (Hoffmann-La Roche Inc., priority 2020, published 2022).
